ChEMBL document CHEMBL4118139, “Novel naphthyloxy derivatives - Potent histamine H3 receptor ligands. Synthesis and pharmacological evaluation” (Bioorg Med Chem, 2018)
Activity calls are given as the source filed them. The calls are words filed in the database; no cut-off is given here.

Experiments:
[1] = target: Histamine H3 receptor (Homo sapiens, UniProt Q9Y5N1); assay: Displacement of [3H]N-alpha-methylhistamine from full length human H3 receptor expressed in HEK293 cell membranes after 90 mins
[2] = system: Rattus norvegicus; assay: In vivo antagonist activity at H3 receptor in RAMH-induced dipsogenic ip dosed Wistar (Krf:(WI) WU) rat model assessed as inhibition of RAMH-water intake administered 30 mins prior to RAMH induction; assay type: functional
[3] = system: Rattus norvegicus; assay: Anticonvulsant activity in Sprague-Dawley rat assessed as protection against maximal electroshock-induced seizures at 30 mg/kg, ip after 0.5 hrs; assay type: functional, organism-based
[4] = system: Mus musculus; assay: Anticonvulsant activity in albino CF-1 mouse assessed as protection against maximal electroshock-induced seizures at 50 mg/kg, ip after 0.25 hrs; assay type: functional, organism-based
[5] = system: Mus musculus; assay: Anticonvulsant activity in albino CF-1 mouse assessed as protection against maximal electroshock-induced seizures at 50 mg/kg, ip after 1 hr; assay type: functional, organism-based
[6] = system: Mus musculus; assay: Neurotoxicity in albino CF-1 mouse assessed as increase in subcutaneous pentylenetetrazole-induced continuous seizures at 50 mg/kg, ip measured after 0.5 hrs; assay type: toxicity, organism-based; details: in vivo
[7] = system: Mus musculus; assay: Neurotoxicity in albino CF-1 mouse assessed as increase in subcutaneous pentylenetetrazole-induced continuous seizures at 50 mg/kg, ip measured after 2 hrs; assay type: toxicity, organism-based; details: in vivo
[8] = system: Mus musculus; assay: Neurotoxicity in albino CF-1 mouse at 50 mg/kg, ip after 1 hr by rotarod test; assay type: toxicity, organism-based; details: in vivo
[9] = system: Mus musculus; assay: Neurotoxicity in albino CF-1 mouse at 50 mg/kg, ip after 2 hrs by rotarod test; assay type: toxicity, organism-based; details: in vivo
[10] = system: Mus musculus; assay: Neurotoxicity in albino CF-1 mouse at 50 mg/kg, ip after 4 hrs by rotarod test; assay type: toxicity, organism-based; details: in vivo
[11] = system: Rattus norvegicus; assay: Anticonvulsant activity in Sprague-Dawley rat assessed as protection against maximal electroshock-induced seizures at 30 mg/kg, ip after 2 hrs; assay type: functional, organism-based
[12] = system: Mus musculus; assay: Neurotoxicity in albino CF-1 mouse at 30 mg/kg, ip after 0.5 hrs by rotarod test; assay type: toxicity, organism-based; details: in vivo
[13] = system: Mus musculus; assay: Neurotoxicity in albino CF-1 mouse at 30 mg/kg, ip after 1 hr by rotarod test; assay type: toxicity, organism-based; details: in vivo
[14] = system: Mus musculus; assay: Neurotoxicity in albino CF-1 mouse at 30 mg/kg, ip after 4 hrs by rotarod test; assay type: toxicity, organism-based; details: in vivo
[15] = system: Rattus norvegicus; assay: Anticonvulsant activity in Sprague-Dawley rat assessed as protection against maximal electroshock-induced seizures at 30 mg/kg, po after 0.5 hrs; assay type: functional, organism-based
[16] = system: Rattus norvegicus; assay: Anticonvulsant activity in Sprague-Dawley rat assessed as protection against maximal electroshock-induced seizures at 30 mg/kg, po after 2 hrs; assay type: functional, organism-based
[17] = system: Rattus norvegicus; assay: Anticonvulsant activity in Sprague-Dawley rat assessed as protection against maximal electroshock-induced seizures at 30 mg/kg, po after 4 hrs; assay type: functional, organism-based
[18] = system: Mus musculus; assay: Neurotoxicity in albino CF-1 mouse at 65 mg/kg after 0.5 hrs by rotarod test; assay type: toxicity, organism-based; details: in vivo
[19] = system: Mus musculus; assay: Neurotoxicity in albino CF-1 mouse at 65 mg/kg after 2 hrs by rotarod test; assay type: toxicity, organism-based; details: in vivo
[20] = system: Mus musculus; assay: Anticonvulsant activity in albino CF-1 mouse assessed as protection against 32 mA current-induced seizure at 50 mg/kg, ip after 4 hrs by 6 Hz psychomotor test; assay type: functional, organism-based
[21] = system: Mus musculus; assay: Neurotoxicity in albino CF-1 mouse at 50 mg/kg after 1 hr by rotarod test; assay type: toxicity, organism-based; details: in vivo
[22] = system: Mus musculus; assay: Neurotoxicity in albino CF-1 mouse at 50 mg/kg after 2 hrs by rotarod test; assay type: toxicity, organism-based; details: in vivo
[23] = system: Mus musculus; assay: Neurotoxicity in albino CF-1 mouse at 50 mg/kg after 4 hrs by rotarod test; assay type: toxicity, organism-based; details: in vivo
[24] = system: Mus musculus; assay: Anticonvulsant activity in albino CF-1 mouse assessed as protection against 44 mA current-induced seizure at 50 mg/kg, ip after 4 hrs by 6 Hz psychomotor test; assay type: functional, organism-based
[25] = system: Mus musculus; assay: Neurotoxicity in albino CF-1 mouse at 50 mg/kg after 0.25 hrs by rotarod test; assay type: toxicity, organism-based; details: in vivo
[26] = Neurotoxicity in ip dosed albino CF-1 mouse after 0.25 hrs by rotarod test; assay type: toxicity, organism-based; details: in vivo
[27] = Neurotoxicity in ip dosed Sprague-Dawley rat after 0.25 hrs by rotarod test; assay type: toxicity, organism-based; details: in vivo
[28] = system: Mus musculus; assay: Anticonvulsant activity in ip dosed albino CF-1 mouse assessed as protection against maximal electroshock-induced seizures after 1 hr; assay type: functional; details: CF-1, ip
[29] = system: Rattus norvegicus; assay: Anticonvulsant activity in ip dosed Sprague-Dawley rat assessed as protection against maximal electroshock-induced seizures after 0.25 hrs; assay type: functional
[30] = system: Mus musculus; assay: Anticonvulsant activity in ip dosed albino CF-1 mouse assessed as protection against subcutaneous pentylenetetrazole-induced seizures measured after 1 hr; assay type: functional; details: CF-1, 1 h
[31] = system: Mus musculus; assay: Anticonvulsant activity in ip dosed albino CF-1 mouse assessed as protection against 32 mA current-induced seizure after 1 hr by 6 Hz psychomotor test; assay type: functional; details: CF-1, ip
[32] = system: Mus musculus; assay: Anticonvulsant activity in ip dosed albino CF-1 mouse assessed as protection against 44 mA current-induced seizure after 0.25 hrs by 6 Hz psychomotor test; assay type: functional; details: CF-1, ip
[33] = Therapeutic index, ratio of po dosed Sprague-Dawley rat TD50 to po dosed Sprague-Dawley rat ED50 for MES assay; assay type: toxicity, organism-based; details: in vivo, read-out: TI
[34] = Therapeutic index, ratio of ip dosed albino CF-1 mouse TD50 to ip dosed albino CF-1 mouse ED50 for 32 mA current-induced 6 Hz psychomotor test; assay type: toxicity, organism-based; details: in vivo, read-out: TI
[35] = Therapeutic index, ratio of ip dosed albino CF-1 mouse TD50 to ip dosed albino CF-1 mouse ED50 for 44 mA current-induced 6 Hz psychomotor test; assay type: toxicity, organism-based; details: in vivo, read-out: TI
[36] = system: Mus musculus; assay: Analgesic activity in ip dosed albino Swiss CD1 mouse assessed reduction in formalin-induced inflammatory pain by measuring reduction in time spent in licking pretreated prior to formalin injection measured at 15 to 30 mins post formalin injection; assay type: functional
[37] = system: Mus musculus; assay: Induction of sedative effect in albino Swiss CD-1 mouse at 15 mg/kg, ip; assay type: organism-based; details: in vivo
[38] = target: Histamine H1 receptor (Homo sapiens) (UniProt P35367); assay: Displacement of [3H]-pyrilamine from human histamine H1 receptor expressed in CHO cell membranes at 1 uM relative to chlorpheniramine
[39] = target: 5-hydroxytryptamine receptor 6 (Homo sapiens, UniProt P50406); assay: Displacement of [3H]-LSD from human 5-HT6 receptor expressed in HEK293 cell membranes after 1 hr
[40] = system: HEK293; assay: Cytotoxicity against HEK293 cells assessed as reduction in cell viability after 72 hrs by MTS assay; assay type: cell-based; details: Homo sapiens, HEK293, 72 h
[41] = system: IMR-32; assay: Cytotoxicity against human IMR32 cells assessed as reduction in cell viability after 72 hrs by MTS assay; assay type: cell-based; details: IMR-32, 72 h
[42] = target: CYP3A4 (Homo sapiens, UniProt P08684); assay: Inhibition of CYP3A4 (unknown origin) at 25 uM by CYP3A4 P450-Glo assay; assay type: ADME
[43] = system: Salmonella typhimurium; assay: Mutagenicity in Salmonella typhimurium TA100 assessed as increase in number of revertants at 1 uM after 90 mins by Ames test; assay type: toxicity, organism-based; details: salmonella enterica subsp. enterica serovar typhimurium, 1.5 h
[44] = system: Salmonella typhimurium; assay: Mutagenicity in Salmonella typhimurium TA100 assessed as increase in number of revertants at 10 uM after 90 mins by Ames test; assay type: toxicity, organism-based; details: salmonella enterica subsp. enterica serovar typhimurium, 1.5 h

Chain of Histamine H1 receptor (Homo sapiens) (P35367 whole entry): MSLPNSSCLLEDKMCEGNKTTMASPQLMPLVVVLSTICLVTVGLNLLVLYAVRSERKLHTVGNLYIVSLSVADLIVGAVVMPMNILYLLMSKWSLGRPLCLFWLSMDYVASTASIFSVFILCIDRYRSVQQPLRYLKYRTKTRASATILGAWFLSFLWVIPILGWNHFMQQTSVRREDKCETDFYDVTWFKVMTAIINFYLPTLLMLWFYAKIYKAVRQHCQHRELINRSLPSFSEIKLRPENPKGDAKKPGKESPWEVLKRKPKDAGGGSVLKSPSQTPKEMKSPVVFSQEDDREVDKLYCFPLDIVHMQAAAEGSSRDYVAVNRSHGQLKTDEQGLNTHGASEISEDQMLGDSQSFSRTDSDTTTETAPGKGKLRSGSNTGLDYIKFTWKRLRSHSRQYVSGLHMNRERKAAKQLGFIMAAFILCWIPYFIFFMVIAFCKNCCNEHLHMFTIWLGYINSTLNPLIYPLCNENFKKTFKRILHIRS
Chain of 5-hydroxytryptamine receptor 6 (P50406 whole entry): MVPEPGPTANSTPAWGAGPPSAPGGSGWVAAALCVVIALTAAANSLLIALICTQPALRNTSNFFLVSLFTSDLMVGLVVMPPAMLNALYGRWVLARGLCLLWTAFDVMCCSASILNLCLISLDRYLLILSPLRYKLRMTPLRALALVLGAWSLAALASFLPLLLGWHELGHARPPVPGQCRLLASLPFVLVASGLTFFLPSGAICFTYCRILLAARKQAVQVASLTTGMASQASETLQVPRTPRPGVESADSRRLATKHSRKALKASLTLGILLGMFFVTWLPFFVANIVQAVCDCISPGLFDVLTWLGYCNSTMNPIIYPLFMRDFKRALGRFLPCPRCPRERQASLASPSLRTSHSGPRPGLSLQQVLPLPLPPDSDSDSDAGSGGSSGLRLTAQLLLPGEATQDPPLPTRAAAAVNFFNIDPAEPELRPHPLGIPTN
Chain of CYP3A4 (P08684 whole entry): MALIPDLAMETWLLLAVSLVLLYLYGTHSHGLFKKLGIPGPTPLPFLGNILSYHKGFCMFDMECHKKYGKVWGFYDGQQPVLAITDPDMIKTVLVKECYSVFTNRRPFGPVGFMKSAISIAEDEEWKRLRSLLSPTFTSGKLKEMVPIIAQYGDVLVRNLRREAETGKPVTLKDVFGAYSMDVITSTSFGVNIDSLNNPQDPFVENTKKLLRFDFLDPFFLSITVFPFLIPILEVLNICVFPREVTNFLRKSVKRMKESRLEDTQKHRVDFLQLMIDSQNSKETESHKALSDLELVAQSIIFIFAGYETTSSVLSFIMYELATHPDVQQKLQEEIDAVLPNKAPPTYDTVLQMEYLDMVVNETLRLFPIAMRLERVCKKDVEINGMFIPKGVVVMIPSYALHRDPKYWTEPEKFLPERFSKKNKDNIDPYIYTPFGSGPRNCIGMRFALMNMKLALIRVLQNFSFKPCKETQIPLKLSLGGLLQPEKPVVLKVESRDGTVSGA
Chain of Histamine H3 receptor (Q9Y5N1 whole entry): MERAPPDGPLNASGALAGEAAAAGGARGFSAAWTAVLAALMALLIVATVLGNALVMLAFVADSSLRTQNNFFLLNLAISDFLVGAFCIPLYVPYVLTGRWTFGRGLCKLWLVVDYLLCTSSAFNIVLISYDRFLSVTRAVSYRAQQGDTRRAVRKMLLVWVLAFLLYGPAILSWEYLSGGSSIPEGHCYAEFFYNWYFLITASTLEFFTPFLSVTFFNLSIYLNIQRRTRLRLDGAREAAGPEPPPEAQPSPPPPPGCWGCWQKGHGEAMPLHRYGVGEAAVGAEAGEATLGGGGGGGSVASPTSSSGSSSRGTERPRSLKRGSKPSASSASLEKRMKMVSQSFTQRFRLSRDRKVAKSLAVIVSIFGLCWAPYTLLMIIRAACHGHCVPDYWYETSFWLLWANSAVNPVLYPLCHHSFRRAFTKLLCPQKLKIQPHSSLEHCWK

Q: Which Ki [1] does the source give for `c1ccc2c(OCCCCCN3CCCCC3)cccc2c1` here?
A: Its Ki is 53.9 nM.

Q: And the ED50 [2]?
A: The ED50 was 2.37 mg/kg.

Q: What about the Activity [3] of the same compound?
A: The Activity was “Active”.

Q: What about the Activity [4] of the same compound?
A: The Activity was “Active”.

Q: What about the Activity [5] of the same compound?
A: The Activity was “Active”.

Q: And the Activity [6]?
A: The Activity was “Non-Toxic”.

Q: What about the Activity [7] of the same compound?
A: The Activity was “Non-Toxic”.

Q: What about the Activity [8] of the same compound?
A: The Activity was “Non-Toxic”.

Q: What about the Activity [9] of the same compound?
A: The Activity was “Non-Toxic”.

Q: And the Activity [10]?
A: The Activity was “Non-Toxic”.

Q: What about the Activity [11] of the same compound?
A: Its Activity is “Active”.

Q: And the Activity [12]?
A: The Activity was “Non-Toxic”.

Q: What about the Activity [13] of the same compound?
A: Its Activity is “Non-Toxic”.

Q: And the Activity [14]?
A: Its Activity is “Non-Toxic”.

Q: What about the Activity [15] of the same compound?
A: The Activity was “inactive”.

Q: And the Activity [16]?
A: Its Activity is “inactive”.

Q: And the Activity [17]?
A: Its Activity is “inactive”.

Q: And the Activity [18]?
A: Its Activity is “Non-Toxic”.

Q: What about the Activity [19] of the same compound?
A: The Activity was “Non-Toxic”.

Q: What about the Activity [20] of the same compound?
A: Its Activity is “inactive”.

Q: And the Activity [21]?
A: Its Activity is “Non-Toxic”.

Q: And the Activity [22]?
A: Its Activity is “Non-Toxic”.

Q: What about the Activity [23] of the same compound?
A: The Activity was “Non-Toxic”.

Q: What about the Activity [24] of the same compound?
A: Its Activity is “inactive”.

Q: What about the Activity [25] of the same compound?
A: Its Activity is “Non-Toxic”.

Q: And the TD50 at 0.25 h [26]?
A: Its TD50 at 0.25 h is 94.8 mg/kg.

Q: What about the TD50 at 0.25 h [27] of the same compound?
A: The TD50 at 0.25 h was 60.6 mg/kg.

Q: What about the ED50 [28] of the same compound?
A: The ED50 was 19.2 mg/kg.

Q: What about the ED50 [29] of the same compound?
A: The ED50 was 17.8 mg/kg.

Q: And the ED50 [30]?
A: Its ED50 is > 100 mg/kg.

Q: And the ED50 [31]?
A: Its ED50 is 33.1 mg/kg.

Q: And the ED50 [32]?
A: The ED50 was 57.2 mg/kg.

Q: What about the selectivity ratio [33] of the same compound?
A: Its selectivity ratio is > 6.4.

Q: What about the selectivity ratio [34] of the same compound?
A: The selectivity ratio was 2.9.

Q: And the selectivity ratio [35]?
A: The selectivity ratio was 1.6.

Q: What about the ED50 [36] of the same compound?
A: Its ED50 is 30 mg/kg.

Q: What about the Activity [37] of the same compound?
A: The Activity was “Toxic”.

Q: And the inhibition [38]?
A: The inhibition was 17%.

Q: What about the Ki [39] of the same compound?
A: Its Ki is 2540 nM.

Q: And the IC50 [40]?
A: The IC50 was > 50000 nM.

Q: And the IC50 [41]?
A: The IC50 was > 50000 nM.

Q: And the inhibition at 25 µM [42]?
A: Its inhibition at 25 µM is 50%.

Q: And the Activity [43]?
A: The Activity was “Non-Toxic”.

Q: What about the Activity [44] of the same compound?
A: The Activity was “Non-Toxic”.
